US11117883B2 (Ariad Pharmaceuticals, Inc., priority 2016, dated 2021)

Legend:
Assay in all cases: c-Kit assay: Ba/F3 KIT mutant viability (Cell Titer-Glo, 72 hours)
Type in all cases: cell-based
[1] = biological target: T1, BAF3 FL KIT EX11DEL/V654A (Homo sapiens, UniProt P10721, V654A, cells depend on it, form not given); details: viability after 72 hours
T1 construct: "BAF3 FL KIT EX11DEL/ V654A"
Procedure: (§1) KIT cDNAs were synthesized by GenScript and cloned into the pLVX-IRES-Puro vector (Clontech). Viral particles were produced by transfecting pLVX-IRES-puro vectors containing KIT mutant genes into HEK293 cells (Invitrogen) using the Trans-Lentiviral ORF Packaging Kit (Thermo Scientific). 48 hours post-transfection, virus-containing supernatants were harvested and incubated for another 48-72 hours with parental Ba/F3 cells (DSMZ) in the presence of 10 ng/mL […] (R&D Systems). Transduced Ba/F3 cells were then selected by IL-3 withdrawal and puromycin (0.5-1 μg/mL, Invitrogen).
(§2) Cell lines (i.e., EX11DEL, EX11DEL/D816H, EX11DEL/T670I, and EX11DEL/V654A) were plated into 384 well plates using RPMI 1640 supplemented with 10% FBS at densities that produced linear growth and incubated at 37° C. in 5% (v/v) CO2. Cells were treated with eight concentrations of compound over a 4-fold dilution (10 μM to 0.61 nM) and viability was assessed using Cell Titer-Glo assay (Promega) after 72 hours. Data were plotted as percent viability relative to vehicle-treated cells. Dose-responses curves were generated and used to calculate IC50 values.

[2] = biological target: T2, BAF3 FL KIT EX11DEL/T6701 (Homo sapiens, UniProt P10721, T670I, cells depend on it, form not given); details: EX11DEL/T6701, viability after 72 hours
T2 construct: "BAF3 FL KIT EX11DEL/ T6701"
T2 sequence (P10721 with tags, fused parts or gaps DEL557-558/T670I, form open): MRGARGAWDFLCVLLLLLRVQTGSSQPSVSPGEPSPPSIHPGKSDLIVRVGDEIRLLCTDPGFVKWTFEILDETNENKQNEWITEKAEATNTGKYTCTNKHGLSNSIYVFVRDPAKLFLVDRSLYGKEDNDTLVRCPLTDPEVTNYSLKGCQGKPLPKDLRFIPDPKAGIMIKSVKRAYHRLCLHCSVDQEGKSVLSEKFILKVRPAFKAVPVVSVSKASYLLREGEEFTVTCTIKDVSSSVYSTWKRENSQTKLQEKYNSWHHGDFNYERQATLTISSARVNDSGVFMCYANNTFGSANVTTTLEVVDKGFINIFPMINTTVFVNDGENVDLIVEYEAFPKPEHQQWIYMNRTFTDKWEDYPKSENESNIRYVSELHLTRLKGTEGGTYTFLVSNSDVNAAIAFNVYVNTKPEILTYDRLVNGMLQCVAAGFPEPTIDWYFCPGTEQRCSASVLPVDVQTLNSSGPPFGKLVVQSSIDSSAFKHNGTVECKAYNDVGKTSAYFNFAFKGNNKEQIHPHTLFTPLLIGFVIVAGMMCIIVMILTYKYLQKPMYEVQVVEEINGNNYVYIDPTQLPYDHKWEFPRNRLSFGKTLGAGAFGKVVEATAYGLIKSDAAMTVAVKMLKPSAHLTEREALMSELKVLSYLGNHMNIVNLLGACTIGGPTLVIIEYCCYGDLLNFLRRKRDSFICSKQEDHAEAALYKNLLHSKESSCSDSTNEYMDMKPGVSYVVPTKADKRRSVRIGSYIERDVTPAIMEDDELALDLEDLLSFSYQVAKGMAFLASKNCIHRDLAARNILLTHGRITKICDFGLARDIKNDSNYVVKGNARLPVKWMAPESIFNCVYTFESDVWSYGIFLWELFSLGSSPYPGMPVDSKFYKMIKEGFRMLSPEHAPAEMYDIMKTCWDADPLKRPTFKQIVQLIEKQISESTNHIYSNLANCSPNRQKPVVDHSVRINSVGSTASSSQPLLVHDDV
Procedure: as §1, §2

[3] = biological target: T3, BAF3 FL KIT EX11DEL/D816H (Homo sapiens, UniProt P10721, D816H, cells depend on it, form not given); details: viability after 72 hours
T3 construct: "BAF3 FL KIT EX11DEL/ D816H"
T3 sequence (P10721 with tags, fused parts or gaps DEL557-558/D816H, form open): as the sequence (P10721 with tags, fused parts or gaps DEL557-558/T670I, form open) above, with I668T, D814H counted along it
Procedure: as §1, §2

BAF3 FL KIT EX11DEL = biological target: T4, BAF3 FL KIT EX11DEL (Homo sapiens, UniProt P10721, cells depend on it, form not given); details: viability after 72 hours
T4 construct: "BAF3 FL KIT EX11DEL"
T4 sequence (P10721 with tags, fused parts or gaps DEL557-558): as the sequence (P10721 with tags, fused parts or gaps DEL557-558/T670I, form open) above, with I668T counted along it
Procedure: as §1, §2

T1 sequence (P10721 with tags, fused parts or gaps DEL557-558/V654A, form open): as the sequence (P10721 with tags, fused parts or gaps DEL557-558/T670I, form open) above, with V652A, I668T counted along it

Row | SMILES | GI50 [1] [nM] | GI50 [2] [nM] | GI50 [3] [nM] | GI50 (BAF3 FL KIT EX11DEL) [nM]
1 | Cc1ccc(C(=O)Nc2cc(C(F)(F)F)ccn2)cc1C#Cc1ccc2c(c1)ncn2C1CC1 [Compound I-13, 3-((1-cyclopropyl-1H-benzo[d]imidazol-5-yl)ethynyl)-4-methyl-N-(4-(trifluoromethyl)pyridin-2-yl)benzamide] | 100 to 10000 | 100 to 10000 | 100 to 10000 | 10 to 50
2 | Cc1ccc(C(=O)Nc2cc(C(F)(F)F)ccn2)cc1C#Cc1ccc2c(c1)ncn2-c1cn(C)cn1 [Compound I-23, 4-methyl-3-((1-(1-methyl-1H-imidazol-4-yl)-1H-benzo[d]imidazol-5-yl)ethynyl)-N-(4-(trifluoromethyl)pyridin-2-yl)benzamide] | 10 to 50 | < 10 | 10 to 50 | < 10
3 | Cc1ccc(C(=O)Nc2cc(C(F)(F)F)ccn2)cc1C#Cc1ccc2c(c1)ncn2CCCN(C)C [Compound I-6, 3-((1-(3-(dimethylamino)propyl)-1H-benzo[d]imidazol-5-yl)ethynyl)-4-methyl-N-(4-(trifluoromethyl)pyridin-2-yl)benzamide] | 100 to 10000 | 50 to 100 | 100 to 10000 | 10 to 50
4 | Cc1ccc(C(=O)Nc2cc(C(F)(F)F)ccn2)cc1C#Cc1ccc2c(c1)ncn2-c1cnn(C2CCN(C=O)CC2)c1 [Compound I-25, 3-((1-(1-(1-formylpiperidin-4-yl)-1H-pyrazol-4-yl)-1H-benzo[d]imidazol-5-yl)ethynyl)-4-methyl-N-(4-(trifluoromethyl)pyridin-2-yl)benzamide] | 10 to 50 | < 10 | 10 to 50 | < 10
5 | Cc1ccc(C(=O)Nc2cc(C(F)(F)F)ccn2)cc1C#Cc1ccc2ncn(C)c2c1 [Compound I-11, 4-methyl-3-((1-methyl-1H-benzo[d]imidazol-6-yl)ethynyl)-N-(4-(trifluoromethyl)pyridin-2-yl)benzamide] | 100 to 10000 | 100 to 10000 | 100 to 10000 | 100 to 10000
6 | Cc1ccc(C(=O)Nc2cc(C(F)(F)F)ccn2)cc1C#Cc1ccc2c(c1)ncn2-c1cnn(CCO)c1 [Compound I-31, 3-((1-(1-(2-hydroxyethyl)-1H-pyrazol-4-yl)-1H-benzo[d]imidazol-5-yl)ethynyl)-4-methyl-N-(4-(trifluoromethyl)pyridin-2-yl)benzamide] | 10 to 50 | < 10 | 10 to 50 | < 10
7 | Cn1cc(-n2cnc3cc(C#Cc4cccc(C(=O)Nc5cc(C(F)(F)F)ccn5)c4)ccc32)cn1 [Compound I-50, 3-((1-(1-methyl-1H-pyrazol-4-yl)-1H-benzo[d]imidazol-5-yl)ethynyl)-N-(4-(trifluoromethyl)pyridin-2-yl)benzamide] | 50 to 100 | < 10 | 100 to 10000 | < 10
8 | Cc1ccc(C(=O)Nc2cc(C(F)(F)F)ccn2)cc1C#Cc1ccc2c(c1)ncn2-c1cn[nH]c1 [Compound I-35, 3-((1-(1H-pyrazol-4-yl)-1H-benzo[d]imidazol-5-yl)ethynyl)-4-methyl-N-(4-(trifluoromethyl)pyridin-2-yl)benzamide] | 10 to 50 | 10 to 50 | 10 to 50 | < 10
9 | Cc1ccc(C(=O)Nc2cc(C(F)(F)F)ccn2)cc1C#Cc1ccc2c(c1)ncn2CCN(C)C [Compound I-3, 3-((1-(2-(dimethylamino)ethyl)-1H-benzo[d]imidazol-5-yl)ethynyl)-4-methyl-N-(4-(trifluoromethyl)pyridin-2-yl)benzamide] | 100 to 10000 | 100 to 10000 | 100 to 10000 | 50 to 100
10 | Cc1ccc(NC(=O)c2cc(C(F)(F)F)ccn2)cc1C#Cc1ccc2c(c1)ncn2-c1cn(C)nn1 [Compound I-36, N-(4-methyl-3-((1-(1-methyl-1H-1,2,3-triazol-4-yl)-1H-benzo[d]imidazol-5-yl)ethynyl)phenyl)-4-(trifluoromethyl)picolinamide] | 10 to 50 | 10 to 50 | 10 to 50 | < 10
11 | Cc1ccc(C(=O)Nc2cc(C(F)(F)F)ccn2)cc1C#Cc1ccc2c(c1)ncn2-c1ccc(N2CCN(C)CC2)cc1 [Compound I-15, 4-methyl-3-((1-(4-(4-methylpiperazin-1-yl)phenyl)-1H-benzo[d]imidazol-5-yl)ethynyl)-N-(4-(trifluoromethyl)pyridin-2-yl)benzamide] | 100 to 10000 | 100 to 10000 | 100 to 10000 | 50 to 100
12 | Cc1ccc(NC(=O)c2cc(C(F)(F)F)ccn2)cc1C#Cc1ccc2c(c1)ncn2-c1cnn(C2CCN(C)CC2)c1 [Compound I-40] | 100 to 10000 | 10 to 50 | 100 to 10000 | < 10
13 | Cc1ccc(C(=O)Nc2cc(C(F)(F)F)ccn2)cc1C#Cc1ccc2c(c1)ncn2Cc1cccnc1 [Compound I-12, 4-methyl-3-((1-(pyridin-3-ylmethyl)-1H-benzo[d]imidazol-5-yl)ethynyl)-N-(4-(trifluoromethyl)pyridin-2-yl)benzamide] | 100 to 10000 | 100 to 10000 | 100 to 10000 | 10 to 50
14 | Cc1ccc(C(=O)Nc2ccc(N3CCN(C)CC3)c(C(F)(F)F)c2)cc1C#Cc1ccc2c(c1)ncn2C [Compound I-22, 4-methyl-3-((1-methyl-1H-benzo[d]imidazol-5-yl)ethynyl)-N-(4-(4-methylpiperazin-1-yl)-3-(trifluoromethyl)phenyl)benzamide] | 100 to 10000 | 100 to 10000 | 100 to 10000 | 100 to 10000
15 | Cc1ccc(C(=O)Nc2cc(C(F)(F)F)ccn2)cc1C#Cc1ccc2c(c1)ncn2-c1cn(C2CCN(C)CC2)cn1 [Compound I-34, 4-methyl-3-((1-(1-(1-methylpiperidin-4-yl)-1H-imidazol-4-yl)-1H-benzo[d]imidazol-5-yl)ethynyl)-N-(4-(trifluoromethyl)pyridin-2-yl)benzamide] | 100 to 10000 | 10 to 50 | 100 to 10000 | < 10
16 | Cc1ccc(C(=O)Nc2ccc(C#N)c(C(F)(F)F)c2)cc1C#Cc1ccc2c(c1)ncn2-c1ccn(C)n1 [Compound I-37, N-(4-cyano-3-(trifluoromethyl)phenyl)-4-methyl-3-((1-(1-methyl-1H-pyrazol-3-yl)-1H-benzo[d]imidazol-5-yl)ethynyl)benzamide] | 50 to 100 | 10 to 50 | 10 to 50 | < 10
17 | Cn1cc(-n2cnc3cc(C#Cc4cccc(NC(=O)c5cc(C(F)(F)F)ccn5)c4)ccc32)cn1 [Compound I-49, N-(3-((1-(1-methyl-1H-pyrazol-4-yl)-1H-benzo[d]imidazol-5-yl)ethynyl)phenyl)-4-(trifluoromethyl)picolinamide] | 50 to 100 | 10 to 50 | 100 to 10000 | < 10
18 | Cc1ccc(C(=O)Nc2cc(C(F)(F)F)ccn2)cc1C#Cc1ccc2c(c1)ncn2-c1cnn(C)c1 [Compound I-19, 4-methyl-3-((1-(1-methyl-1H-pyrazol-4-yl)-1H-benzo[d]imidazol-5-yl)ethynyl)-N-(4-(trifluoromethyl)pyridin-2-yl)benzamide] | 10 to 50 | < 10 | 10 to 50 | < 10
19 | Cc1ccc(NC(=O)c2ccc(CN3CCCC3)c(C(F)(F)F)c2)cc1C#Cc1ccc2c(c1)ncn2-c1cnn(C)c1 [Compound I-47, N-(4-methyl-3-((1-(1-methyl-1H-pyrazol-4-yl)-1H-benzo[d]imidazol-5-yl)ethynyl)phenyl)-4-(pyrrolidin-1-ylmethyl)-3-(trifluoromethyl)benzamide] | 100 to 10000 | 50 to 100 | 100 to 10000 | 10 to 50
20 | Cc1ccc(C(=O)Nc2cc(C(F)(F)F)ccn2)cc1C#Cc1ccc2c(c1)ncn2-c1cnn(C2CCNCC2)c1 [Compound I-26, 4-methyl-3-((1-(1-(piperidin-4-yl)-1H-pyrazol-4-yl)-1H-benzo[d]imidazol-5-yl)ethynyl)-N-(4-(trifluoromethyl)pyridin-2-yl)benzamide] | 10 to 50 | 10 to 50 | 10 to 50 | < 10
21 | Cn1cc(-n2cnc3cc(C#Cc4cc(C(=O)Nc5cc(C(F)(F)F)ccn5)ccc4F)ccc32)cn1 [Compound I-51, 4-fluoro-3-((1-(1-methyl-1H-pyrazol-4-yl)-1H-benzo[d]imidazol-5-yl)ethynyl)-N-(4-(trifluoromethyl)pyridin-2-yl)benzamide] | 10 to 50 | < 10 | 100 to 10000 | < 10
22 | Cc1ccc(NC(=O)c2ccc(CN3CCOCC3)c(C(F)(F)F)c2)cc1C#Cc1ccc2c(c1)ncn2-c1cnn(C)c1 [Compound I-48, N-(4-methyl-3-((1-(1-methyl-1H-pyrazol-4-yl)-1H-benzo[d]imidazol-5-yl)ethynyl)phenyl)-4-(morpholinomethyl)-3-(trifluoromethyl)benzamide] | 50 to 100 | 10 to 50 | 50 to 100 | < 10
